The text below walks through data of PubChem BioAssay AID1053171 (The Scripps Research Institute Molecular Screening Center, 2014).

The source made the active and inactive calls. How the calls were made is not given here.

For orientation: IC50 means the concentration that inhibits the measured activity by half.

The target in this test is HIV-1 integrase (multimerization). The test is described as follows: HIV-1 integrase multimerization activators, dose response, counter-screen for LEDGF/p75 integration inhibitor project, biochemical, TR-FRET (AID 1053171). On the technique in general: The purpose of a counterscreen is to sort out artefacts and off-target activity.
With `O=C1C=C(O)c2c(O)cc(O)c(O)c2C1=O`, the IC50 is 0.085 µM. Under `O=C1C=C(Nc2ccccc2O)c2ccccc2C1=O` stands “inactive”; under `O=[N+]([O-])c1cc(Br)c(O)c(C=Nc2ccc(N3CCOCC3)cc2)c1`, > 53.8 µM (inactive).

In the case of `O=c1c(O)c(-c2ccc(O)c(O)c2)oc2cc(O)ccc12`, the concentration for half-maximal inhibition (IC50) was 1.45 µM. As for `O=C1/C(=C\c2ccc(O)c(O)c2)C(c2ccccc2)=NN1c1ccccc1`, the IC50 was 8.68 µM. With `CN(C)c1ccc(O)c2c1CC1CC3[C@@H](N(C)C)C(=O)C(C(N)=O)=C(O)[C@]3(O)C(=O)C1=C2O` (some centres undefined), the IC50 was 2.53 µM. Turning to `O=c1c(O)c(-c2ccc(O)c(O)c2)oc2cc(O)cc(O)c12`, the half-inhibitory concentration (IC50) is 5.34 µM.

As to `Cc1cc(C(=O)N/N=C/c2ccc(O)c([N+](=O)[O-])c2)c(C)n1-c1ccc(F)cc1`, the IC50 entry is “inactive”.

As to `NS(=O)(=O)c1ccc(N/N=C/c2ccc(O)c(O)c2O)c([N+](=O)[O-])c1`, the IC50 was 3.4 µM. As to `O=C1CCCC(O)=C1N=Nc1ccc(C(=O)O)cc1`, the IC50 is 2.72 µM. On to `O=C1NC(=Nc2ccc(O)cc2)S/C1=C\C=C\c1ccco1`, for which the IC50 result was “inactive”.

Turning to `N/C(=N\N=C/c1ccc(-c2ccc(O)c(C(=O)O)c2)o1)N[N+](=O)[O-]`, the IC50 was 4.54 µM.

Take `CN(C)C1C(=O)C(C(N)=O)=C(O)C2(O)C(=O)C3=C(O)c4c(O)cccc4C(C)(O)C3C(O)C12` (centres undefined): the IC50 result is “inactive”. For `Cc1c(CC(=O)N2CCN(C(=O)C3COc4ccccc4O3)CC2)c(=O)oc2c(O)c(O)ccc12` (centres undefined) the value was > 53.7 µM (inactive). For `COc1cc(C)cc(C(=O)O)c1C1=C(O)c2cccc(O)c2C(=O)C1=O` the value was “inactive”; for `O=[N+]([O-])c1ccccc1NC(=S)N/N=C/c1ccc(O)c(O)c1`, “inactive”. For `C=C1c2cccc(O)c2C(O)=C2C(=O)[C@]3(O)C(O)=C(C(N)=O)C(=O)[C@@H](N(C)C)[C@@H]3[C@@H](O)[C@H]12` the value was 8.53 µM; for `CC1=NN(c2cccc(C(=O)O)c2)C(=O)/C1=C\C=C\c1ccco1`, 1.41 µM; for `O=c1cc2c(=O)oc3cc(O)c(O)oc3c2c(O)c1O`, 0.354 µM. Turning to `O=C1c2cc(O)c(O)cc2OC(c2ccc(O)c(O)c2)C1O` (centres undefined), the IC50 result was “inactive”. Under `NC(=O)c1ccc(N=Cc2c(O)n(Cc3ccco3)c(=O)[nH]c2=O)cc1` stands > 53.7 µM (inactive); under `CN(C)[C@@H]1C(=O)C(C(N)=O)=C(O)[C@@]2(O)C(=O)C3=C(O)c4c(O)cccc4[C@@](C)(O)C3[C@H](O)C12` (some centres undefined), “inactive”. Consider `O=C1C=C(O)c2[nH]c(=O)ccc2C1=O`, for which the IC50 was 7.38 µM. On to `C[n+]1c2cc(N)ccc2cc2ccc(N)cc21`, for which the IC50 is > 17.9 µM (inactive).
